Measured values published in patent publication US6031071A, “Methods of generating novel peptides” (Biophage, Inc., priority 1996, dated 2000).
Entries after “also recorded” stand apart in the source; their conditions may differ.

Experiments:
[1] = molecular target: phage V6 (peptide V6) binding to doxorubicin; experiment: Displacement assay: inhibition of V6 phage binding to doxorubicin-BSA coated wells by drugs; conditions: for IC50: read-out: IC50 for inhibiting the binding of phages V6 to doxorubicin; for blocking/displacement of the interaction of the phage with doxorubicin: result in words
Experimental: Phage V6 (10^10 virions) was preincubated for 1 hr at room temperature in 100 μl of 0.1% BSA/PBS buffer containing different drug concentrations (10^-4 M to 10^-9 M), and aliquots were added to microtiter wells, which were […] with doxorubicin-BSA as previously described in Example II. After a 1-h incubation at room temperature, the wells were washed 12 times with PBS and the remaining bound phages eluted with 50 μl of 0.1 M HCl (pH adjusted to 2.2 with glycine). The phages were quantitated by titration on log phase of E. coli K91Kan cells plated on LB plates with […] tetracycline (Parmley & Smith, Gene, 73: 305-318 (1988)).

[2] = ELISA of phage binding to immobilized doxo-BSA, detected with polyclonal anti-phage serum; conditions: result in words
Experimental: In order to characterize the binding of individual clones, four different clones V6, V10, V12 and A4 together with the control phage X1 were analyzed for binding to doxorubicin in an ELISA experiment in which polyclonal anti-phage antibodies were used to detect bound phages. Antisera were raised against fd-Tet phage lacking insertion into pIII. Three rabbits were injected intramuscularly with 0.5 mg of fd-ted phages in Freunds complete adjuvant and then boosted three times with 0.25 mg of fd-ted phages in incomplete adjuvant at 3 weeks intervals. The titer of the antisera was measured with an ELISA using phage immobilized in Maxisorb microtiter wells as described (Motti et al., Gene, 146: 91-198 (1994)). All rabbits produced high titer antisera after the second boost. […]
Phages from the second PEG precipitation (Parmley & Smith, Gene, 73: 305-318 (1988)) were dissolved in 210 μl of 0.15 M NaCl, microfuged for 1 min, precipitated from 200 μl of the supernatant by the addition of 21.2 μl of 1 M acetic acid, and by incubation for 10 min at room temperature and 10 min on ice. […] Phage concentration was determined as described in Parmley & Smith, Gene, 73: 305-318 (1988). […] To reveal the reaction, 100 μl of ABTS solution (Kirkegaard & Perry Labs, Maryland, USA) were added, incubated for 30 min at room temperature, and read in a microplate reader. […]

[3] = ELISA control empty wells (plastic binding)
Experimental: Phages from the second PEG precipitation (Parmley & Smith, Gene, 73: 305-318 (1988)) were dissolved in 210 μl of 0.15 M NaCl, microfuged for 1 min, precipitated from 200 μl of the supernatant by the addition of 21.2 μl of 1 M acetic acid, and by incubation for 10 min at room temperature and 10 min on ice. (Scott & Smith, Science, 249: 386-390 (1990)). Phages were sedimented (microfuged, 45 min, 4 C.) and dissolved in 60 μl of TBS. Phage concentration was determined as described in Parmley & Smith, Gene, 73: 305-318 (1988). These partially purified phages were subjected to one round of screening, except that the phages were not acid eluted. Instead, blocking solution [250 μl of nonfat dry milk ([…]) in 0,05% TWEEN20 ™/TBS (TWEEN20 ™: Polysorbate 20)] was added to the wells. After a 2-h incubation at room temperature, wells were washed three times in 0.05% TWEEN20 ™/TBS. Rabbit anti-phage fd-ted serum, 100 μl of a 1:1000 dilution (in blocking solution) was added to wells and incubated overnight. Wells were washed seven times in 0.05% TWEEN20 ™/TBS and once with TBS; 100 μl of a peroxidase-conjugated goat anti-rabbit immunoglobulin were then added (Kirkegaard & Perry Labs, Maryland, USA, diluted 1:1000). […] To reveal the reaction, 100 μl of ABTS solution (Kirkegaard & Perry Labs, Maryland, USA) were added, incubated for 30 min at room temperature, and read in a microplate reader. […]

[4] = phage V6 10^10 virions preincubated 1 hr with drug 10^-4 M to 10^-9 M, doxorubicin-BSA coated wells

Row | Molecule | IC50 [1, 4] [nM] | blocking/displacement of the interaction of the phage with doxorubicin [1] | binding of display phage to doxorubicin (ELISA, OD405) [2] | binding of phage to plastic [3] | IC50 for inhibiting the binding of phages V6 to doxorubicin [1, 4]
1 | CC[C@]1(O)C[C@@H]2CN(CCc3c([nH]c4ccccc34)[C@@](C(=O)OC)(c3cc4c(cc3OC)N(C)[C@H]3[C@@](O)(C(=O)OC)[C@H](OC(C)=O)[C@]5(CC)C=CCN6CC[C@]43[C@@H]65)C2)C1 [vinblastine] | 1.5 | displaced; also recorded: could be blocked | – | – | –
2 | COc1cccc2c1C(=O)c1c(O)c3c(c(O)c1C2=O)C[C@@](O)(C(=O)CO)C[C@@H]3O[C@H]1C[C@H](N)[C@H](O)[C@H](C)O1 [doxorubicin] | 4.5 | could be blocked | – | – | –
3 | VCDWWGWGIC [phage V6] | – | – | strong specific binding | only background binding | –
4 | Nc1ccn([C@@H]2O[C@H](CO)[C@@H](O)[C@@H]2O)c(=O)n1 [Ara-C] | – | – | – | – | essentially inactive
